Measured values as given in US6841519B1, “Isoxazoline derivatives and herbicides containing the same as the active ingredient” (Kumiai Chemical Industry Co., Ltd., priority 1999, dated 2005).

Legend:
Format in all cases: in vivo
rice (Or) = test: Test for crop selectivity by paddy field soil treatment (Test Example 4), phytotoxicity to rice; details: transplanted two-leaf stage rice, 100 g/10 a active ingredient, 21st day
Method: (§1) [table] <Test Example 4> Test For Crop Selectivity By Paddy Field Soil Treatment A paddy field soil was filled in a plastic pot of 100 cm^2 and subjected to puddling. Seeds of Echinochloa oryzicola Vasing. (Eo) were sowed; two-leaf stage seedlings of rice (Or) were transplanted in a depth of 2 cm; and water was filled in a depth of 3 cm. Next day, wettable powders produced in accordance with the Formulation 1 were diluted with water and dropped on the water surface. The application amount of each wettable powder was 100 g per 10 ares in terms of the active ingredient. Then, breeding was made in a greenhouse. At the 21st day from the treatment, the phytotoxicity and herbicidal effect of each wettable powder were examined in accordance with the standard shown in Table 40.

[1] = system: Echinochloa crus-galli (L.) Beauv. var. crusgalli (Ec); test: Test for herbicidal effect by upland foliage treatment (Test Example 3); details: 100 g/10 a active ingredient, examined at 14th day
In short: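 Scored 14 days post-spray against a graded standard: greenhouse-grown Ec, 2 weeks old in upland soil, received whole-foliage application of diluted wettable powder (100 g active ingredient per 10 ares, spray volume 100 L per 10 ares).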

[2] = system: Setaria viridis (L.) Beauv. (Se); test: Test for herbicidal effect by upland field soil treatment (Test Example 2), Se
In short: (§2)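 Pre-emergence soil treatment: wettable powder diluted in water and sprayed on soil just sown with Ec and Se seeds, delivering 100 g active ingredient per 10 ares in 100 liters per 10 ares. Herbicidal effect was rated against a fixed scale 21 days later, after greenhouse growth.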

[3] = system: Echinochloa oryzicola Vasing. (Eo); test: Test for crop selectivity by paddy field soil treatment (Test Example 4), herbicidal effect on Eo; details: 100 g/10 a active ingredient, 21st day
Method: as §1

[4] = system: Echinochloa crus-galli (L.) Beauv. var. crusgall (Ec); test: Test for herbicidal effect by upland field soil treatment (Test Example 2), Ec
In short: as §2

[5] = system: Echinochloa oryzicola Vasing. (Eo); test: Test for herbicidal effect by paddy field soil treatment (Test Example 1); details: application amount (active ingredient) 100 g/10 a, examined at the 21st day from the treatment, index per Table 40
In short: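 Scored on a standard scale at day 21 in the greenhouse: herbicidal effect of wettable powder applied to flooded water (3 cm depth) at 100 g a.i./10 ares, one day after sowing Eo into puddled paddy soil.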

[6] = application amount (active ingredient) 100 g/10 a, examined at the 21st day from the treatment, index per Table 40
[7] = 100 g/10 a active ingredient, examined at 21st day

SMILES | Phytotoxicity to Or (rice (Or)) | Herbicidal effect to Ec [1] | Herbicidal effect to Se [2, 6] | Herbicidal effect to Eo [3] | Herbicidal effect to Ec [4, 6] | Herbicidal effect to Eo [5] | Herbicidal effect to Se [2, 7] | Herbicidal effect to Ec [4, 7]
CCC1(C)CC(S(=O)(=O)Cc2ccc(C)cc2)=NO1 (centres unmarked) [Compound 1-203] | 1 (A herbicidal effect or phytotoxicity of 10% to less than 30%) | 4 (A herbicidal effect or phytotoxicity of 70% to less than 90%) | 4 (A herbicidal effect or phytotoxicity of 70% to less than 90%) | 5 (A herbicidal effect or phytotoxicity of 90% or more) | 5 (A herbicidal effect or phytotoxicity of 90% or more) | 5 (A herbicidal effect or phytotoxicity of 90% or more) |  | 
CC12CCCCCC1C(S(=O)(=O)Cc1c(F)cccc1F)=NO2 (centres unmarked) [Compound 1-556] | 0 (A herbicidal effect or phytotoxicity of 0% to less than 10%) | 4 (A herbicidal effect or phytotoxicity of 70% to less than 90%) |  | 5 (A herbicidal effect or phytotoxicity of 90% or more) |  | 5 (A herbicidal effect or phytotoxicity of 90% or more) | 4 (A herbicidal effect or phytotoxicity of 70% to less than 90%) | 5 (A herbicidal effect or phytotoxicity of 90% or more)
COC(=O)c1cccc(CS(=O)(=O)C2=NOC(C)(C)C2)c1[N+](=O)[O-] [Compound 1-503] | 0 (A herbicidal effect or phytotoxicity of 0% to less than 10%) | 4 (A herbicidal effect or phytotoxicity of 70% to less than 90%) |  | 5 (A herbicidal effect or phytotoxicity of 90% or more) |  | 5 (A herbicidal effect or phytotoxicity of 90% or more) | 5 (A herbicidal effect or phytotoxicity of 90% or more) | 5 (A herbicidal effect or phytotoxicity of 90% or more)
O=S(=O)(Cc1c(F)cccc1F)C1=NOC(C2CC2)(C2CC2)C1 [Compound 1-520] | 1 (A herbicidal effect or phytotoxicity of 10% to less than 30%) | 4 (A herbicidal effect or phytotoxicity of 70% to less than 90%) |  | 5 (A herbicidal effect or phytotoxicity of 90% or more) |  | 5 (A herbicidal effect or phytotoxicity of 90% or more) | 5 (A herbicidal effect or phytotoxicity of 90% or more) | 5 (A herbicidal effect or phytotoxicity of 90% or more)
COc1ccc(C(C)C)c(C)c1CS(=O)(=O)C1=NOC(C)(C)C1 [Compound 1-584] | 1 (A herbicidal effect or phytotoxicity of 10% to less than 30%) | 5 (A herbicidal effect or phytotoxicity of 90% or more) |  | 5 (A herbicidal effect or phytotoxicity of 90% or more) |  | 5 (A herbicidal effect or phytotoxicity of 90% or more) |  | 
COC(=O)c1ccccc1CS(=O)(=O)C1=NOC(C)(C)C1 [Compound 1-145] | 0 (A herbicidal effect or phytotoxicity of 0% to less than 10%) | 4 (A herbicidal effect or phytotoxicity of 70% to less than 90%) | 5 (A herbicidal effect or phytotoxicity of 90% or more) | 5 (A herbicidal effect or phytotoxicity of 90% or more) | 5 (A herbicidal effect or phytotoxicity of 90% or more) | 5 (A herbicidal effect or phytotoxicity of 90% or more) |  | 
CC1(C)CC(S(=O)(=O)Cc2c(N)cccc2F)=NO1 [Compound 1-549] | 1 (A herbicidal effect or phytotoxicity of 10% to less than 30%) |  |  | 5 (A herbicidal effect or phytotoxicity of 90% or more) |  | 5 (A herbicidal effect or phytotoxicity of 90% or more) | 5 (A herbicidal effect or phytotoxicity of 90% or more) | 5 (A herbicidal effect or phytotoxicity of 90% or more)
CCC1(C)CC(SCc2c(F)cccc2F)=NO1 (centres unmarked) [Compound 1-198] | 1 (A herbicidal effect or phytotoxicity of 10% to less than 30%) |  | 5 (A herbicidal effect or phytotoxicity of 90% or more) | 5 (A herbicidal effect or phytotoxicity of 90% or more) | 4 (A herbicidal effect or phytotoxicity of 70% to less than 90%) | 5 (A herbicidal effect or phytotoxicity of 90% or more) |  | 
CC1(C)CC(S(=O)(=O)Cc2ccccc2OC2CCCCC2)=NO1 [Compound 1-610] | 1 (A herbicidal effect or phytotoxicity of 10% to less than 30%) |  |  | 5 (A herbicidal effect or phytotoxicity of 90% or more) |  | 5 (A herbicidal effect or phytotoxicity of 90% or more) | 5 (A herbicidal effect or phytotoxicity of 90% or more) | 5 (A herbicidal effect or phytotoxicity of 90% or more)
CCC1(C)CC(S(=O)(=O)Cc2cccc(F)c2)=NO1 (centres unmarked) [Compound 1-190] | 1 (A herbicidal effect or phytotoxicity of 10% to less than 30%) |  | 5 (A herbicidal effect or phytotoxicity of 90% or more) | 5 (A herbicidal effect or phytotoxicity of 90% or more) | 5 (A herbicidal effect or phytotoxicity of 90% or more) | 5 (A herbicidal effect or phytotoxicity of 90% or more) |  | 
CCC(C)OC(=O)c1ccccc1CS(=O)(=O)C1=NOC(C)(C)C1 (centres unmarked) [Compound 1-597] | 1 (A herbicidal effect or phytotoxicity of 10% to less than 30%) |  |  | 5 (A herbicidal effect or phytotoxicity of 90% or more) |  | 5 (A herbicidal effect or phytotoxicity of 90% or more) | 4 (A herbicidal effect or phytotoxicity of 70% to less than 90%) | 5 (A herbicidal effect or phytotoxicity of 90% or more)
CCCOC(=O)c1cccc(Cl)c1CS(=O)(=O)C1=NOC(C)(C)C1 [Compound 1-620] | 1 (A herbicidal effect or phytotoxicity of 10% to less than 30%) |  |  | 5 (A herbicidal effect or phytotoxicity of 90% or more) |  | 5 (A herbicidal effect or phytotoxicity of 90% or more) | 5 (A herbicidal effect or phytotoxicity of 90% or more) | 5 (A herbicidal effect or phytotoxicity of 90% or more)
CCC1(C)CC(S(=O)(=O)Cc2ccccc2OC)=NO1 (centres unmarked) [Compound 1-228] | 1 (A herbicidal effect or phytotoxicity of 10% to less than 30%) |  | 5 (A herbicidal effect or phytotoxicity of 90% or more) | 5 (A herbicidal effect or phytotoxicity of 90% or more) | 5 (A herbicidal effect or phytotoxicity of 90% or more) | 5 (A herbicidal effect or phytotoxicity of 90% or more) |  | 
CCC1(C)CC(S(=O)(=O)Cc2cccc([N+](=O)[O-])c2)=NO1 (centres unmarked) [Compound 1-331] | 0 (A herbicidal effect or phytotoxicity of 0% to less than 10%) |  | 5 (A herbicidal effect or phytotoxicity of 90% or more) | 5 (A herbicidal effect or phytotoxicity of 90% or more) | 5 (A herbicidal effect or phytotoxicity of 90% or more) | 5 (A herbicidal effect or phytotoxicity of 90% or more) |  | 
